Measurements published in the supplement of paper PMC10307832.

Experiments:
Assay in all cases: relative viability (nuclei count vs DMSO), 5 days (fraction); higher = more cells survive
NCI-H1395 = system: NCI-H1395
In short: (§1)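 Lung cancer cell lines were pin-tool dosed in 1536-well plates on the day after seeding, with either a lone drug or a fixed anchor-drug dose plus five library-drug doses (not always all listed) in √10 steps. Nuclei were counted on 4× images after 5 days. Relative viability is the ratio of treated-well to vehicle-well nuclei counts, with each value a median of duplicate plates.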

NCI-H2405 = system: NCI-H2405
In short: as §1

HARA = system: HARA
In short: as §1

NCI-H1355 = system: NCI-H1355
In short: as §1

BEN = system: BEN
In short: as §1

NCI-H1437 = system: NCI-H1437
In short: as §1

HCC-827 = system: HCC-827
In short: as §1

NCI-H1792 = system: NCI-H1792
In short: as §1

NCI-H647 = system: NCI-H647
In short: as §1

NCI-H2087 = system: NCI-H2087
In short: as §1

NCI-H2009 = system: NCI-H2009
In short: as §1

NCI-H1993 = system: NCI-H1993
In short: as §1

NCI-H2170 = system: NCI-H2170
In short: as §1

NCI-H1734 = system: NCI-H1734
In short: as §1

SK-MES-1 = system: SK-MES-1
In short: as §1

HCC-366 = system: HCC-366
In short: as §1

SK-LU-1 = system: SK-LU-1
In short: as §1

EKVX = system: EKVX
In short: as §1

LOU-NH91 = system: LOU-NH91
In short: as §1

What does the source list for Nc1ccn([C@@H]2O[C@H](CO)[C@@H](O)[C@@H]2O)c(=O)n1 [Cytarabine] + CC1(C)CCC(c2ccc(Cl)cc2)=C(CN2CCN(c3ccc(C(=O)NS(=O)(=O)c4ccc(N[C@H](CCN5CCOCC5)CSc5ccccc5)c(S(=O)(=O)C(F)(F)F)c4)cc3)CC2)C1 [Navitoclax] (partner 0.5 µM)?
relative viability (NCI-H1395; first compound 0.005 µM): 1.2; relative viability (NCI-H1395; first compound 0.01581 µM): 0.849; relative viability (NCI-H1395; first compound 0.05 µM): 0.65; relative viability (NCI-H1395; first compound 0.1581 µM): 0.48; relative viability (NCI-H1395; first compound 0.5 µM): 0.368; relative viability (NCI-H2405; first compound 0.005 µM): 0.851; relative viability (NCI-H2405; first compound 0.01581 µM): 0.671; relative viability (NCI-H2405; first compound 0.05 µM): 0.424; relative viability (NCI-H2405; first compound 0.1581 µM): 0.373; relative viability (NCI-H2405; first compound 0.5 µM): 0.114; relative viability (HARA; first compound 0.005 µM): 1.09; relative viability (HARA; first compound 0.01581 µM): 0.593; relative viability (HARA; first compound 0.05 µM): 0.302; relative viability (HARA; first compound 0.1581 µM): 0.178; relative viability (HARA; first compound 0.5 µM): 0.131; relative viability (NCI-H1355; first compound 0.005 µM): 0.897; relative viability (NCI-H1355; first compound 0.01581 µM): 0.811; relative viability (NCI-H1355; first compound 0.05 µM): 0.819; relative viability (NCI-H1355; first compound 0.1581 µM): 0.325; relative viability (NCI-H1355; first compound 0.5 µM): 0.203; relative viability (BEN; first compound 0.005 µM): 0.059; relative viability (BEN; first compound 0.01581 µM): 0.0619; relative viability (BEN; first compound 0.05 µM): 0.159; relative viability (BEN; first compound 0.1581 µM): 0.0433; relative viability (BEN; first compound 0.5 µM): 0.0457; relative viability (NCI-H1437; first compound 0.005 µM): 0.875; relative viability (NCI-H1437; first compound 0.01581 µM): 0.637; relative viability (NCI-H1437; first compound 0.05 µM): 0.469; relative viability (NCI-H1437; first compound 0.1581 µM): 0.214; relative viability (NCI-H1437; first compound 0.5 µM): 0.175; relative viability (HCC-827; first compound 0.005 µM): 0.615; relative viability (HCC-827; first compound 0.01581 µM): 0.529; relative viability (HCC-827; first compound 0.05 µM): 0.398; relative viability (HCC-827; first compound 0.1581 µM): 0.264; relative viability (HCC-827; first compound 0.5 µM): 0.252; relative viability (NCI-H1792; first compound 0.005 µM): 0.339; relative viability (NCI-H1792; first compound 0.01581 µM): 0.55; relative viability (NCI-H1792; first compound 0.05 µM): 0.223; relative viability (NCI-H1792; first compound 0.1581 µM): 0.304; relative viability (NCI-H1792; first compound 0.5 µM): 0.246; relative viability (NCI-H647; first compound 0.005 µM): 0.73; relative viability (NCI-H647; first compound 0.01581 µM): 0.517; relative viability (NCI-H647; first compound 0.05 µM): 0.148; relative viability (NCI-H647; first compound 0.1581 µM): 0.092; relative viability (NCI-H647; first compound 0.5 µM): 0.0675; relative viability (NCI-H2087; first compound 0.005 µM): 0.973; relative viability (NCI-H2087; first compound 0.01581 µM): 1.04; relative viability (NCI-H2087; first compound 0.05 µM): 0.924; relative viability (NCI-H2087; first compound 0.1581 µM): 0.542; relative viability (NCI-H2087; first compound 0.5 µM): 0.452; relative viability (NCI-H2009; first compound 0.005 µM): 1.13; relative viability (NCI-H2009; first compound 0.01581 µM): 1.21; relative viability (NCI-H2009; first compound 0.05 µM): 0.99; relative viability (NCI-H2009; first compound 0.1581 µM): 0.898; relative viability (NCI-H2009; first compound 0.5 µM): 0.31; relative viability (NCI-H1993; first compound 0.005 µM): 0.92; relative viability (NCI-H1993; first compound 0.01581 µM): 0.949; relative viability (NCI-H1993; first compound 0.05 µM): 0.721; relative viability (NCI-H1993; first compound 0.1581 µM): 0.548; relative viability (NCI-H1993; first compound 0.5 µM): 0.624; relative viability (NCI-H2170; first compound 0.01581 µM): 0.448; relative viability (NCI-H2170; first compound 0.05 µM): 0.361; relative viability (NCI-H2170; first compound 0.1581 µM): 0.28; relative viability (NCI-H2170; first compound 0.5 µM): 0.263; relative viability (NCI-H1734; first compound 0.005 µM): 0.418; relative viability (NCI-H1734; first compound 0.01581 µM): 0.322; relative viability (NCI-H1734; first compound 0.05 µM): 0.197; relative viability (NCI-H1734; first compound 0.1581 µM): 0.142; relative viability (NCI-H1734; first compound 0.5 µM): 0.126; relative viability (SK-MES-1; first compound 0.005 µM): 0.957; relative viability (SK-MES-1; first compound 0.01581 µM): 0.869; relative viability (SK-MES-1; first compound 0.05 µM): 0.408; relative viability (SK-MES-1; first compound 0.1581 µM): 0.22; relative viability (SK-MES-1; first compound 0.5 µM): 0.178; relative viability (HCC-366; first compound 0.005 µM): 0.889; relative viability (HCC-366; first compound 0.01581 µM): 0.918; relative viability (HCC-366; first compound 0.05 µM): 0.328; relative viability (HCC-366; first compound 0.1581 µM): 0.0444; relative viability (HCC-366; first compound 0.5 µM): 0.0177; relative viability (SK-LU-1; first compound 0.005 µM): 0.775; relative viability (SK-LU-1; first compound 0.01581 µM): 0.703; relative viability (SK-LU-1; first compound 0.05 µM): 0.34; relative viability (SK-LU-1; first compound 0.1581 µM): 0.266; relative viability (SK-LU-1; first compound 0.5 µM): 0.179; relative viability (EKVX; first compound 0.005 µM): 0.936; relative viability (EKVX; first compound 0.01581 µM): 0.933; relative viability (EKVX; first compound 0.05 µM): 0.664; relative viability (EKVX; first compound 0.1581 µM): 0.298; relative viability (EKVX; first compound 0.5 µM): 0.198; relative viability (LOU-NH91; first compound 0.005 µM): 0.693; relative viability (LOU-NH91; first compound 0.01581 µM): 0.606; relative viability (LOU-NH91; first compound 0.05 µM): 0.463; relative viability (LOU-NH91; first compound 0.1581 µM): 0.332; relative viability (LOU-NH91; first compound 0.5 µM): 0.35
